Reference: US20130136794A1, “HETEROARYL (ALKYL) DITHIOCARBAMATE COMPOUNDS, PREPARATION METHODS AND USES THEREOF” (PEKING UNIVERSITY, priority 2010, published 2013)

Experiments:
HL-60 human leukaemia = assay: Inhibition of tumor cell proliferation at 10 μM, Model A: MTT method; assay type: cell-based; settings: HL-60, MTT method, read-out: Model A Inhibitory rate (%)
Description: (§1) The evaluation of the compounds according to the present invention on the inhibition rate of the proliferation of four different tumor cells, using the routine method for anti-tumor activity tests in the pharmaceutical filed, for example the method described in the following literature: (J. Immuno/Method, 1983, 65, 55).

[1] = tested on: BGC-823 human gastric cancer; assay: Inhibition of tumor cell proliferation at 10 μM, Model B: SRB method; assay type: cell-based; settings: BGC-823, SRB method, read-out: Model B Inhibitory rate (%)
Description: as §1

[2] = tested on: Bel-7402 human liver cancer; assay: Inhibition of tumor cell proliferation at 10 μM, Model C: SRB method; assay type: cell-based; settings: Bel-7402, SRB method, read-out: Model C Inhibitory rate (%)
Description: as §1

[3] = tested on: KB human nasopharyngeal cancer; assay: Inhibition of tumor cell proliferation at 10 μM, Model D: SRB method; assay type: cell-based; settings: read-out: Model D Inhibitory rate (%)
Description: as §1

[4] = tested on: human leukaemia HL-60 cells; assay: EC50 on proliferation of HL-60 cells (MTT, 48 h); assay type: cell-based; settings: read-out: HL-60 EC50 (nmol)
Description: (§2) EC50 values of the compounds according to the present invention on the proliferation of human leukaemia HL-60 cells and Bel-7402 cells were determined by using the following method, and the results are shown in Table 2.
Testing method for EC50 values on the human leukaemia HL-60 cells: The human leukaemia HL-60 cells were cultured in vitro. The cells were collected after growth to logarithmic phase, and centrifugated at 1000 rpm for 5 min. The supernatant was discarded and the cells were suspended in an appropriate amount of medium. The cell concentration was adjusted to 1.2×10^4/mL. The cells were seeded into 96-well culture plates in 90 μL per well. For each well of the drug treatment groups, 10 μL of medium-diluted drug was added, whereas for the blank control groups, the same amount of medium was added. Every testing drug was set up for three parallel wells, and also three control wells with only testing drugs (without cell) were set up. Negative control groups were medium containing 0.5% DMSO. After the plate was incubated in an incubator for 48 h, 10 μL of 5 mg/mL MTT was added into each well, and then the plate was placed for 3 h at 37° C. 100 μL of ternary solution (5% SDS, 10 mM HCl, 5% isopropanol) was added into each well, and the plate was kept at 37° C. overnight. The absorbance (OD) was measured at 595 nm/620 nm. The EC50 values were calculated by using Prism Graphpad statistical software.

Bel-7402 cells = assay: EC50 on proliferation of Bel7402 cells (SRB, 48 h); assay type: cell-based; settings: Homo sapiens, read-out: Bel7402 EC50 (nmol)
Description: as §2
Testing method for ED50 values on the human Be17402ce11: After the cells were incubated with the addition of the drugs for 48 h, the plates were taken out. 50 μL of pre-cooled 500 g/L trichloroacetic acid was added into each well. The plates were kept in 4° C. refrigerator for 1 h after standing for 5 min, taken out, washed with deionized water for 5 times, and dried in the air. After the plates were completely dried, 100 μL of 0.4% SRB (formulated in 1% acetic acid) was added into each well. Following staining for 20 min, the staining solution was discarded, and the residue was washed with 1% acetic acid for 5 times to remove the uncombined dye. After being dried in the air, the residue was dissolved in 150 μL of 10 mmol/L unbuffered
Tris basic solution (pH=10.5), and oscillated in an oscillator for 5 min. The absorbance of each well at 490 nm was measured with TECAN enzyme mark instrument. The cells in background control plates were treated in the same way for measuring OD490. The EC50 values were calculated by using Prism Graphpad statistical software.

Structure (SMILES)	EC50 [4] [nM]	EC50 (Bel-7402 cells) [nM]	melting point [°C]	inhibition at 10 µM (HL-60 human leukaemia) [%]	inhibition at 10 µM [1] [%]	inhibition at 10 µM [2] [%]	inhibition at 10 µM [3] [%]
N#CCCSC(=S)NCc1ccco1 [Compound 3, 2-cyanoethyl(furan-2-ylmethyl)dithiocarbamate]	–	–	–	24.6	29.5	68.2	55.1
NS(=O)(=O)CCSC(=S)NCc1ccco1 [Compound 5, 2-sulfamoylethyl(furan-2-ylmethyl)dithiocarbamate]	–	–	–	17.3	17.2	17.5	31.6
OB(O)CCSC(=S)NCc1ccco1 [Compound 6, 2-boronoethyl(furan-2-ylmethyl)dithiocarbamate]	–	–	–	0.06	14.5	2.9	1.68
COC(=O)CCSC(=S)NCc1cccnc1 [Compound 10, 2-(methoxycarbonyl)ethyl(pyridin-3-ylmethyl)dithiocarbamate]	–	–	–	61.9	72	87.5	91.5
NS(=O)(=O)CCSC(=S)NCc1cccnc1 [Compound 13, 2-sulfamoylethyl(pyridin-3-ylmethyl)dithiocarbamate]	–	–	–	-4.25	18.4	5.87	17.6
C[S+]([O-])CCSC(=S)NCc1cccnc1 (stereo not shown) [Compound 15, 2-(methylsulfinyl)ethyl(pyridin-3-ylmethyl)dithiocarbamate]	–	–	–	26.1	9.95	-2.37	3.58
CC(C)(C)C(=O)Nc1ccncc1CNC(=S)SCCC#N [Compound 17, 2-cyanoethyl[(4-pivalamidopyridin-3-yl)methyl]dithiocarbamate]	0.473	32.3	122 to 124	–	–	–	–
N#CCCSC(=S)NCc1cnc2ccccc2c1 [Compound 18, 2-cyanoethyl(quinolin-3-ylmethyl)dithiocarbamate]	5.18	327	120 to 122	–	–	–	–
COc1ncccc1CNC(=S)SCCC#N [Compound 20, 2-cyanoethyl[(2-methoxypyridin-3-yl)methyl]dithiocarbamate]	0.8	7.67	88 to 92	–	–	–	–
COC(=O)c1ccc(CNC(=S)SCCC#N)cn1 [Compound 21, 2-cyanoethyl[(6-methoxycarbonylpyridin-3-yl)methyl]dithiocarbamate]	6.93	116	106 to 112	–	–	–	–
N#CCCSC(=S)NCc1cncc(Br)c1 [Compound 24, 2-cyanoethyl[(5-bromopyridin-3-yl)methyl]dithiocarbamate]	4.91	20.5	102 to 108	–	–	–	–
N#CCCSC(=S)NCc1ccc(-c2ccco2)nc1 [Compound 25, 2-cyanoethyl{[6-(furan-2-yl)pyridin-3-yl]methyl}dithiocarbamate]	4.78	21.1	118 to 120	–	–	–	–
CN1CCOC2C=C(CNC(=S)SCCC#N)C=NC21 (stereo not shown) [Compound 26, 2-cyanoethyl[(4-methyl-3,4,4a,8a-tetrahydro-2/4-pyrido[3,2-b][1 ,4]oxazin-7-yl)-methyl]dithiocarbamate]	82.2	96.4	117 to 118	–	–	–	–
N#CCCSC(=S)NCc1ccc(Oc2ccccc2)nc1 [Compound 27, 2-cyanoethyl[(6-phenoxypyridin-3-yl)methyl]dithiocarbamate]	0.548	48.9	–	–	–	–	–
CN(Cc1cccnc1)C(=S)SCCC#N [Compound 29, 2-cyanoethyl N-methyl-(pyridin-3-ylmethyl)dithiocarbamate]	134	2.2	–	–	–	–	–
N#CCCSC(=S)Nc1cccnc1 [Compound 30, 2-cyanoethyl pyridin-3-yldithiocarbamate]	80.7	286	–	–	–	–	–
CC(NC(=S)SCCC#N)c1cccnc1 (stereo not shown) [Compound 32, 2-cyanoethyl[1-(pyridin-3-yl)ethyl]dithiocarbamate]	3.28	64.8	–	–	–	–	–
COc1ccc(CNC(=S)SCCC#N)cn1 [Compound 33, 2-cyanoethyl[(6-methoxypyridin-3-yl)methyl]dithiocarbamate]	0.813	109	90 to 92	–	–	–	–
N#CCCSC(=S)NCc1cncnc1 [Compound 36, 2-cyanoethyl(pyrimidin-5-ylmethyl)dithiocarbamate]	–	–	168 to 171	–	–	–	–
Cc1cc(CNC(=S)SCCC#N)n(C)n1 [Compound 37, 2-cyanoethyl[(1,3-dimethyl-1H-pyrazol-5-yl)methyl]dithiocarbamate]	4.17	4.26	–	–	–	–	–
N#CCCSC(=S)NCc1cnc(N2CCOCC2)nc1 [Compound 41, 2-cyanoethyl[(2-morpholinopyrimidin-5-yl)methyl]dithiocarbamate]	5.03	22.4	151 to 154	–	–	–	–
N#CCCSC(=S)NCc1nnc(-c2ccccc2)s1 [Compound 45, 2-cyanoethyl[(5-phenyl-1,3,4-thiadiazol-2-yl)methyl]dithiocarbamate]	11.8	18.6	156 to 158	–	–	–	–
N#CCCSC(=S)NCc1ccc[nH]1 [Compound 46, 2-cyanoethyl[(1H-pyrrol-2-yl)methyl]dithiocarbamate]	282	227	–	–	–	–	–

Second part, led by results:

EC50 [4] [nM]	EC50 (Bel-7402 cells) [nM]	melting point [°C]	Structure (SMILES)	inhibition at 10 µM (HL-60 human leukaemia) [%]	inhibition at 10 µM [1] [%]	inhibition at 10 µM [2] [%]	inhibition at 10 µM [3] [%]
0.796	18.8	–	N#CCCSC(=S)NCCc1cccnc1 [Compound 19, 2-cyanoethyl[2-(pyridin-3-yl)ethyl]dithiocarbamate]	–	–	–	–
1.72	23.4	138 to 142	Cc1cc(C)c(CNC(=S)SCCC#N)cn1 [Compound 22, 2-cyanoethyl[(4,6-dimethylpyridin-3-yl)methyl]dithiocarbamate]	–	–	–	–
0.557	10.3	86 to 90	COc1cncc(CNC(=S)SCCC#N)c1 [Compound 23, 2-cyanoethyl[(5-methoxypyridin-3-yl)methyl]dithiocarbamate]	–	–	–	–
56.5	10.5	–	N#CCCSC(=S)NCc1ccncc1 [Compound 28, 2-cyanoethyl(pyridin-4-ylmethyl)dithiocarbamate]	–	–	–	–
4.7	234	118 to 120	N#CCCSC(=S)NC(c1ccccc1)c1cccnc1 (stereo not shown) [Compound 31, 2-cyanoethyl[phenyl(pyridin-3-yl)methyl]dithiocarbamate]	–	–	–	–
7.88	17.9	221 to 224	Cc1nc(-c2ccccc2)oc1CNC(=S)SCCC#N [Compound 34, 2-cyanoethyl[(4-methyl-2-phenyloxazol-5-yl)methyl]dithiocarbamate]	–	–	–	–
6.05	24.9	–	Cc1c(CNC(=S)SCCC#N)cnn1-c1ccccc1 [Compound 35, 2-cyanoethyl[(5-methyl-1-phenyl-1H-pyrazol-4-yl)methyl]dithiocarbamate]	–	–	–	–
109	296	76 to 78	N#CCCSC(=S)NCc1nccs1 [Compound 38, 2-cyanoethyl(thiazol-2-ylmethyl)dithiocarbamate]	–	–	–	–
> 1000	> 1000	96 to 99	N#CCCSC(=S)NCc1cnccn1 [Compound 39, 2-cyanoethyl(pyrazin-2-ylmethyl)dithiocarbamate]	–	–	–	–
14.2	25.7	148 to 152	N#CCCSC(=S)NCc1nnc(-c2ccccc2)o1 [Compound 40, 2-cyanoethyl[(5-phenyl-1,3,4-oxadiazol-2-yl)methyl]dithiocarbamate]	–	–	–	–
4.82	3.48	81 to 83	N#CCCSC(=S)NCCCc1cccnc1 [Compound 42, 2-cyanoethyl[3-(pyridin-3-yl)propyl]dithiocarbamate]	–	–	–	–
